Peptide text beside a SMILES is read from it. * marks the point of attachment. X1 = CC(C)C[C@H]1C(=O)NCN1* Bounds are passed on as bounds.

What is called Ki is a dissociation constant, usually derived from enzyme kinetics or from competition with a known ligand. Higher therefore signals lower affinity.

Test [1] addresses Kappa-type opioid receptor (Rattus norvegicus, UniProt P34975). Briefly: Binding affinity towards Opioid receptor kappa 1 was determined using U69,593 as the radioligand.
A further test deals with Mu-type opioid receptor (Rattus norvegicus, UniProt P33535).
Mu-type opioid receptor, sequence (P33535 whole entry): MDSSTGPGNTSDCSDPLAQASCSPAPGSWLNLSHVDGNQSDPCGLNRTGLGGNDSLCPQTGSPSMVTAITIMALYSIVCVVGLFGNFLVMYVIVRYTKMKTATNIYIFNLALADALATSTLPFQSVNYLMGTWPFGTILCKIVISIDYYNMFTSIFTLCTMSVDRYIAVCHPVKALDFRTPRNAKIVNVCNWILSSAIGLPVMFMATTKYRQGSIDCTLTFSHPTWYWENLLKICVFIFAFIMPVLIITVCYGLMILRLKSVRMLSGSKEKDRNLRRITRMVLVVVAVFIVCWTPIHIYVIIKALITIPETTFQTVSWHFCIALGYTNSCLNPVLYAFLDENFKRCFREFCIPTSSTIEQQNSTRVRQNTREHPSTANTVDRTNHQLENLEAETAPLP

Kappa-type opioid receptor, sequence (P34975 whole entry): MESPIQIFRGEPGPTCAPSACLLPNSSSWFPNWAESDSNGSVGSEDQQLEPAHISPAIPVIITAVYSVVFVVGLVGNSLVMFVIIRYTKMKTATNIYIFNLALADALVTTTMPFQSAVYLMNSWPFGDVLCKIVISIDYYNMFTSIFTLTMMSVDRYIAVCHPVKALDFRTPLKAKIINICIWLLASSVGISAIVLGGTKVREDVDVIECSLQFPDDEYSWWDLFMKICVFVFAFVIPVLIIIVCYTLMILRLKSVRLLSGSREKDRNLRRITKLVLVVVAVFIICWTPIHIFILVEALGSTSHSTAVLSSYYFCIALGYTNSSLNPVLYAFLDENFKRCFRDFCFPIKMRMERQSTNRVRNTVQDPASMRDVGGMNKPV

Take `CC(C)C[C@@H](C(N)=O)N1CN(C(=O)CNC(=O)CNC(=O)[C@@H](N)Cc2ccc(O)cc2)[C@@H](Cc2ccccc2)C1=O`: the Ki in test [1] was more than 10000 nM; on Mu-type opioid receptor it was 2560 nM.

`CC(C)C[C@H](NC(=O)[C@H](Cc1ccccc1)NC(=O)CNC(=O)CN1CN[C@@H](Cc2ccc(O)cc2)C1=O)C(N)=O`: the inhibition constant (Ki) is more than 10000 nM in test [1] and 547 nM at Mu-type opioid receptor.

For `CC(C)C[C@H](NC(=O)[C@H](Cc1ccccc1)NC(=O)CN1CN(C(=O)[C@@H](N)Cc2ccc(O)cc2)CC1=O)C(N)=O`, the inhibition constant Ki in test [1] is more than 10000 nM; on Mu-type opioid receptor, 92 nM.

Consider `CC(C)C[C@@H](C(N)=O)N(C)C(=O)[C@H](Cc1ccccc1)NC(=O)CNC(=O)CNC(=O)[C@@H](N)Cc1ccc(O)cc1`, for which the figures for the Ki (in test [1]; on Mu-type opioid receptor) were 2230 nM and 46 nM, respectively.

As to `CNC(=O)[C@H](CC(C)C)N(C)C(=O)[C@H](Cc1ccccc1)NC(=O)CNC(=O)CNC(=O)[C@@H](N)Cc1ccc(O)cc1`, the Ki in test [1] was 1690 nM; on Mu-type opioid receptor, 28 nM.

With `CNC(=O)[C@H](CC(C)C)NC(=O)[C@H](Cc1ccccc1)NC(=O)CNC(=O)CNC(=O)[C@@H](N)Cc1ccc(O)cc1`, the Ki in test [1] turned out to be 1370 nM; at Mu-type opioid receptor it was 145 nM.

As for `CC(C)C[C@H]1C(=O)NCN1C(=O)[C@H](Cc1ccccc1)NC(=O)CNC(=O)CNC(=O)[C@@H](N)Cc1ccc(O)cc1` (H-YGGF-X1), the values for the inhibition constant (Ki) (in test [1]; on Mu-type opioid receptor) were 2890 nM and 4 nM, respectively.

As to `CC(C)C[C@H](NC(=O)[C@H](Cc1ccccc1)N1CN(C(=O)CNC(=O)[C@@H](N)Cc2ccc(O)cc2)CC1=O)C(N)=O`, the Ki in test [1] is more than 10000 nM; on Mu-type opioid receptor it was 236 nM.
